Laboratory results published in EP4778932A1 (priority 2023, dated 2025).

What was measured:
[1] = system: MDA-MB-231; assay: cells; type: cell-based; conditions: Homo sapiens, 120 h; MDA-MB-231 cells, five days co-incubation; read-out: IC50 (nM) MDA-MB-231
Procedure: (§1) MDA-MB-231, OV90, and NCI-N87 cells at defined cell densities (1,500 cells per well, 80 µL volume) were seeded into 96-well plates. The cells were cultured overnight in a constant-temperature incubator (37°C, 5% CO2). Ecteinascidin derivative solutions at a maximum concentration of 2 mM were first prepared in DMSO, and serial 1:4 gradient dilutions were performed. 1 µL of each DMSO-prepared dilution was added to 99 µL of PBS containing 10% FBS per well and mixed thoroughly. The diluted solutions (2 µL of diluted solution and 18 µL of PBS containing 10% FBS per well) were then co-incubated with the cells (37°C, 5% CO2) for five days, after which CellTiter-Glo reagent (40 µL per well) was added, and […] values were measured using an i3x microplate reader.

[2] = system: NCI-N87; assay: cells; type: cell-based; conditions: Homo sapiens, 120 h; NCI-N87 cells, five days co-incubation; read-out: IC50 (nM) NCI-N87
Procedure: as §1

[3] = system: OV90; assay: cells; type: cell-based; conditions: Homo sapiens, OV-90, 120 h; OV90 cells, five days co-incubation; read-out: IC50 (nM) OV90
Procedure: as §1

[4] = system: MDA-MB-231, OV90, and NCI-N87 cells; assay: Tumor cell proliferation inhibition assay of novel ecteinascidin derivatives, summary over the three cell lines; type: cell-based; conditions: compared with trabectedin and lurbinectedin
Procedure: as §1, with “The” for “MDA-MB-231, OV90, and NCI-N87 cells at defined cell densities (1,500 cells per well, 80 µL volume) were seeded into 96-well plates. The”

[5] = system: specific soft tissue sarcomas; conditions: cited from earlier work
[6] = 378 patients who received at least one dose; cited from earlier work

SMILES | IC50 [1] [nM] | IC50 [2] [nM] | IC50 [3] [nM] | in-vitro cytotoxic activities [4] | other results
COc1cc2c(cc1N)C(C)(C)CN[C@]21CS[C@@H]2c3c(OC(C)=O)c(C)c4c(c3[C@H](COC1=O)N1[C@@H]2[C@H]2c3c(cc(C)c(OC)c3O)C[C@@H]([C@@H]1O)N2C)OCO4 [P52] | < 1 | < 1 | < 1 | superior to or comparable to those of trabectedin and lurbinectedin | –
COc1cc2c(cc1NC(=O)C(O)C1CC1)CCN[C@]21CS[C@@H]2c3c(OC(C)=O)c(C)c4c(c3[C@H](COC1=O)N1[C@@H]2[C@H]2c3c(cc(C)c(OC)c3O)C[C@@H]([C@@H]1C#N)N2C)OCO4 (stereo partly drawn) [P58] | < 1 | < 1 | < 1 | superior to or comparable to those of trabectedin and lurbinectedin | –
COc1cc2c(cc1NC(=O)[C@H]1C[C@@H](O)C1)CCN[C@]21CS[C@@H]2c3c(OC(C)=O)c(C)c4c(c3[C@H](COC1=O)N1[C@@H]2[C@H]2c3c(cc(C)c(OC)c3O)C[C@@H]([C@@H]1C#N)N2C)OCO4 [P74] | < 1 | < 1 | < 1 | superior to or comparable to those of trabectedin and lurbinectedin | –
COc1cc2c(cc1NC(=O)[C@H]1C[C@H](O)C1)CCN[C@]21CS[C@@H]2c3c(OC(C)=O)c(C)c4c(c3[C@H](COC1=O)N1[C@@H]2[C@H]2c3c(cc(C)c(OC)c3O)C[C@@H]([C@@H]1C#N)N2C)OCO4 [P75] | < 1 | < 1 | < 1 | superior to or comparable to those of trabectedin and lurbinectedin | –
COc1c(C)cc2c(c1O)[C@@H]1[C@@H]3[C@@H]4SC[C@]5(NCCc6cc(NC(=O)CO)c(F)cc65)C(=O)OC[C@@H](c5c6c(c(C)c(OC(C)=O)c54)OCO6)N3[C@@H](C#N)[C@H](C2)N1C [P85] | < 1 | < 1 | < 1 | superior to or comparable to those of trabectedin and lurbinectedin | –
COc1cc2c(cc1NC(=O)CO)C(C)(C)CN[C@]21CS[C@@H]2c3c(OC(C)=O)c(C)c4c(c3[C@H](COC1=O)N1[C@@H]2[C@H]2c3c(cc(C)c(OC)c3O)C[C@@H]([C@@H]1C#N)N2C)OCO4 [P96] | < 1 | < 1 | < 1 | superior to or comparable to those of trabectedin and lurbinectedin | –
COc1c(C)cc2c(c1O)[C@@H]1[C@@H]3[C@@H]4SC[C@]5(NCCc6c5ccc(N)c6OC)C(=O)OC[C@@H](c5c6c(c(C)c(OC(C)=O)c54)OCO6)N3[C@@H](C#N)[C@H](C2)N1C [P166] | < 1 | < 1 | < 1 | superior to or comparable to those of trabectedin and lurbinectedin | –
COc1c(C)cc2c(c1O)[C@@H]1[C@@H]3[C@@H]4SC[C@]5(NCCc6c5ccc(NC(=O)CO)c6OC)C(=O)OC[C@@H](c5c6c(c(C)c(OC(C)=O)c54)OCO6)N3[C@@H](C#N)[C@H](C2)N1C [P170] | < 1 | < 1 | < 1 | superior to or comparable to those of trabectedin and lurbinectedin | –
COc1c(C)cc2c(c1O)[C@@H]1[C@@H]3[C@@H]4SC[C@]5(NCCc6cc(N)c(C)cc65)C(=O)OC[C@@H](c5c6c(c(C)c(OC(C)=O)c54)OCO6)N3[C@@H](C#N)[C@H](C2)N1C [P172] | < 1 | < 1 | < 1 | superior to or comparable to those of trabectedin and lurbinectedin | –
COc1cc(N)cc2c1[C@@]1(CS[C@@H]3c4c(OC(C)=O)c(C)c5c(c4[C@H](COC1=O)N1[C@@H]3[C@H]3c4c(cc(C)c(OC)c4O)C[C@@H]([C@@H]1C#N)N3C)OCO5)NCC2 [T1] | < 1 | < 1 | < 1 | superior to or comparable to those of trabectedin and lurbinectedin | –
COc1c(C)cc2c(c1O)[C@@H]1[C@@H]3[C@@H]4SC[C@]5(NCC(C)(C)c6cc(N)c(F)cc65)C(=O)OC[C@@H](c5c6c(c(C)c(OC(C)=O)c54)OCO6)N3[C@@H](C#N)[C@H](C2)N1C [T3] | < 1 | < 1 | < 1 | superior to or comparable to those of trabectedin and lurbinectedin | –
COc1c(C)cc2c(c1O)[C@@H]1[C@@H]3[C@@H]4SC[C@]5(NCCc6cc(NC(=O)C7(O)CC7)c(F)cc65)C(=O)OC[C@@H](c5c6c(c(C)c(OC(C)=O)c54)OCO6)N3[C@@H](C#N)[C@H](C2)N1C [T4] | < 1 | < 1 | < 1 | superior to or comparable to those of trabectedin and lurbinectedin | –
COc1cc2c(cc1N)C(OC)CN[C@]21CS[C@@H]2c3c(OC(C)=O)c(C)c4c(c3[C@H](COC1=O)N1[C@@H]2[C@H]2c3c(cc(C)c(OC)c3O)C[C@@H]([C@@H]1C#N)N2C)OCO4 (stereo partly drawn) [T10] | < 1 | < 1 | < 1 | superior to or comparable to those of trabectedin and lurbinectedin | –
COc1cc2c(cc1N(C)C(=O)CO)CCN[C@]21CS[C@@H]2c3c(OC(C)=O)c(C)c4c(c3[C@H](COC1=O)N1[C@@H]2[C@H]2c3c(cc(C)c(OC)c3O)C[C@@H]([C@@H]1C#N)N2C)OCO4 [T17] | < 1 | < 1 | < 1 | superior to or comparable to those of trabectedin and lurbinectedin | –
COc1cc2c(cc1O)CCN[C@]21CS[C@@H]2c3c(OC(C)=O)c(C)c4c(c3[C@H](COC1=O)N1[C@@H]2[C@H]2c3c(cc(C)c(OC)c3O)C[C@@H]([C@@H]1O)N2C)OCO4 [Trabectedin] | 1 to 10 | < 1 | 10 to 200 | – | HR ([5]; disease progression or death, 95% CI: 0.44-0.70, p<0.001): 0.55; median OS ([5]; more than 500 patients): 13.7 months; risk of disease progression or death was reduced ([5]; more than 500 patients): 45%; median PFS ([5]; more than 500 patients, n=345, 95% CI: 3.0-4.8 months): 4.2 months; adverse reactions: constipation [6]: 37%; adverse reactions: decreased appetite [6]: 37%; adverse reactions: diarrhea [6]: 35%; adverse reactions: dyspnea [6]: 25%; adverse reactions: fatigue [6]: 69%; adverse reactions: headache [6]: 25%; adverse reactions: nausea [6]: 75%; adverse reactions: peripheral edema [6]: 28%; adverse reactions: vomiting [6]: 46%; grade 3-4 laboratory abnormalities: alanine transaminase (ALT) increase [6]: 31%; grade 3-4 laboratory abnormalities: anemia [6]: 19%; grade 3-4 laboratory abnormalities: aspartate transaminase (AST) increase [6]: 17%; grade 3-4 laboratory abnormalities: creatine kinase increase [6]: 6.4%; grade 3-4 laboratory abnormalities: neutropenia [6]: 43%; grade 3-4 laboratory abnormalities: thrombocytopenia [6]: 21%
